According to US7964593B2, “Indolone-acetamide derivatives, processes for preparing them and their uses” (UCB Pharma, S.A., priority 2003, dated 2011):

Legend:
[1] = compared with levetiracetam, literature statement; cited from earlier work

Row | melting point | SMILES | activity in the treatment of epilepsy [1]
1 | 171 to 172 °C | C[C@H](C(N)=O)N1C(=O)Cc2cc(Cl)ccc21 (single isomer, unassigned) [Compound 33] | –
2 | 171 to 172 °C | C[C@@H](C(N)=O)N1C(=O)Cc2cc(Cl)ccc21 (single isomer, unassigned) [Compound 34] | –
3 | – | CC[C@H](C(N)=O)N1CCCC1=O [(R)-α-ethyl-2-oxo-1-pyrrolidine acetamide] | completely lacks activity
